Values joined by “and” are separate entries in the source; they are usually repeats but may differ in a detail not shown here. Equal values may be shown once. Read-outs that look alike come from different tables or passages of the source.
Legend:
[1] = Safety and tolerability in the PET studies; type: in vivo, human
From the text: Safety and tolerability assessments included records of adverse events, vital signs (blood pressure, heart rate), Allen’s test, ECG, clinical chemistry, hematology assessments, and urinalysis.

[2] = system: GABAA receptors (benzodiazepine binding site); test: PET with [11C]flumazenil (HRRT): GABAA receptor occupancy; type: in vivo, human; settings: for Occupancy (%) CER: cerebellum; for Occupancy (%) CER / Occupancy (%) OC / Occupancy (%) PUT / Occupancy (%) AMG: 1 h after drug administration; for Occupancy (%) OC: occipital cortex; for Occupancy (%) PUT: putamen; for Occupancy (%) AMG: amygdala
Procedure: Two separate open-label phase I PET studies were conducted in 2008–2009.
The initial study design included two sequential panels, with two subjects in each. The first panel was intended to obtain initial receptor occupancy values, to be used for dose selection in the second panel. […] The studies followed an adaptive design, i.e., doses and PET measurements were adjusted depending on the results of preceding measurements. […] To optimize quantification of the relationship between AZ6280 exposure and receptor occupancy, the number of subjects with the highest 40 mg dose was increased (Fig. 1).
The head of the subject was fixed using individual plaster helmet. A sterile physiological phosphate buffer (pH 7.4) solution containing [^11C]flumazenil was injected intravenously as a bolus during 2 s, immediately followed by flush with 10 ml saline. The injected radioactivity for [^11C]flumazenil was in the range of 330–350 MBq, (340 (9) MBq, mean, SD) in the study 1 and in the range of 317–363 MBq (335 (16) MBq) in the study 2. The specific radioactivity of the radioligand at time of injection ranged from 310 to 1465 GBq/μmol (730 (414) GBq/μmol, mean, SD) and from 464 to 1879 GBq/μmol (977 (424) GBq/μmol, mean, SD), for study 1 and study 2, respectively.
PET examinations were performed over 63 min (HRRT; Siemens/CTI). List mode data were reconstructed using the ordinary Poisson 3D ordered subset estimation maximization algorithm, with 10 iterations and 16 subsets including modeling of the point spread function (Varrone et al. [2009]) into a 4D PET image containing 33 consecutive time frames (9 × 10 s, 2 × 15 s, 3 × 20 s, 4 × 30 s, 4 × 60 s, 4 × 180 s, 7 × 360 s) with a 3D array of 256 × 256 × 207 voxels having a size of 1.22 × 1.22 × 1.22 mm.
The anatomical brain regions were delineated manually on the MR images using in-house image analysis software. The regions included cortical and striatal subregions, thalamus, cerebellum, limbic regions, pons, and whole brain. The following four regions were selected in the final analysis: The occipital cortex and cerebellum were chosen because of the highest GABAA receptor binding by [^11C]flumazenil and good imaging statistics and preferential distribution of α1/α2 receptor subtypes; the amygdala was chosen because of its role in the brain circuits involved in anxiety and putamen for preferential α1/α2/α3 versus α5 receptor subtypes (Lingford-Hughes et al. [2002]; Fatemi et al. [2013]; Waldvogel and Faull [2015]). For the pons, the ROI was drawn on horizontal projection on the six central slices. […] The concentration of radioactivity in each ROI, calculated for each sequential time frame and corrected for ^11C decay, was plotted versus time (TACs).
An index of neuronal GABAA receptor density or binding potential (BPND) was calculated using the simplified reference tissue model (Lammertsma and Hume [1996]) and pons as a reference region. The calculated receptor occupancy (%) was then correlated to drug exposure according to the following equation:1 Occupancy=Occmax×Cav,PET/Ki,plasma+Cav,PET
where Occmax is the maximal occupancy induced by drug, C av,PET is the total drug plasma concentration, and K i,plasma is the inhibition constant corresponding to the drug plasma concentration required for half-maximum receptor occupancy. Non-linear least squares curve fitting of the relationship between drug plasma concentration and receptor occupancy was performed using Matlab R2007b (http://de.mathworks.com). Regional data were fitted simultaneously to obtain a single estimate of K i,plasma and regionally different estimates of Occmax. Best fit estimate and confidence interval (95% CI) were obtained on the logarithmic scale.

[3] = system: approximately 160 different ligand binding assays; test: Battery of approximately 160 different ligand binding assays at 10 μM; settings: active = ≥50% inhibition with an IC50 <1µM
[4] = Plasma pharmacokinetics after single oral doses in the PET studies; type: in vivo, human; settings: for C av,PET: average plasma concentration at time of PET
Procedure: Venous blood samples for determination of drug plasma concentrations were collected at approximately 15 min before [^11C]flumazenil injection and at 15 and 30 min and 3, 4, 6, 8, 10, 12, 16, 24, 36, and 48 h after drug administration, including three samples during PET measurement, at 1, 1.30, and 2 h after drug administration.
Calculations of the pharmacokinetic parameters included the maximum plasma concentration (C max), the time to the maximum plasma concentration (T max), and the average drug plasma concentration during the PET measurement (C av,PET) (division of the partial area corresponding to the start and end times of PET assessment, AUCPET, by the duration of the PET measurement). The pharmacokinetic calculations were performed using non-compartmental analysis using WinNonlin™, Pharsight Corporation.

[5] = Brain exposure in animals; type: in vivo
human MT1 receptor = human MT1 receptor (Homo sapiens, UniProt P48039); test: MT1 receptor GTPγS studies; type: biochemical
[6] = VAS alertness-sedation, Modified Wilson Sedation Scale, DSST; ref NCT00681317 and NCT00681915; cited from earlier work
[7] = set-up: method as in Chen et al. 2014, 2015; settings: neurophysiological test battery; ref Chen et al. 2014, 2015; cited from earlier work
[8] = AZD7325 single oral dose 0.2 mg

Chain of human MT1 receptor (P48039 whole entry): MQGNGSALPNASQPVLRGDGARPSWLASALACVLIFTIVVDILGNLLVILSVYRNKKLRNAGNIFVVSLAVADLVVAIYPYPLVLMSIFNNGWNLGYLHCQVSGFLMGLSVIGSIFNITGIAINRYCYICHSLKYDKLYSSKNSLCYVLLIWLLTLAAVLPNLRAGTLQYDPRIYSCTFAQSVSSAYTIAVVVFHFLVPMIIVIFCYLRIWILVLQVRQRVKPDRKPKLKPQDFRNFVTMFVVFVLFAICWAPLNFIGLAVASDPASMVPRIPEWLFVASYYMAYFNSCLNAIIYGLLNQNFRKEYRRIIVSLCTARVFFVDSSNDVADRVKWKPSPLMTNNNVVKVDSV

CCCNC(=O)c1nnc2c(-c3c(F)cccc3OC)cccc2c1N [AZD7325]
receptor occupancy at the doses/exposure at which adverse events were reported ([1]; AZD7325 5, 20 and 30 mg, AZD6280 20 mg and above): > 70%
high receptor occupancy reached without obvious sedative effects ([1]; PET studies): > 70%
CNS-related AEs ([1]; reported by three subjects at 20 and 30 mg and in one subject both at 20 and at 5 mg): dizziness, feeling hot, anhedonia, and hypoesthesia
calculated GABAA receptor occupancy at the highest doses ([2]; 20–30 mg AZD7325, occipital cortex and cerebellum): over 80%
Occupancy (%) CER [2, 8]: −5% and 3%
Occupancy (%) OC [2, 8]: −8% and 0.5%
Occupancy (%) CER ([2]; AZD7325 single oral dose 1 mg): 43% and 25%
Occupancy (%) CER ([2]; AZD7325 single oral dose 2 mg): 45% and 60%
Occupancy (%) OC ([2]; AZD7325 single oral dose 2 mg): 24% and 42%
Occupancy (%) PUT ([2]; AZD7325 single oral dose 2 mg): 28% and 26%
Occupancy (%) AMG ([2]; AZD7325 single oral dose 5 mg): 16% and 26%
Occupancy (%) CER ([2]; AZD7325 single oral dose 5 mg): 85% and 82%
Occupancy (%) OC ([2]; AZD7325 single oral dose 5 mg): 77% and 67%
Occupancy (%) PUT ([2]; AZD7325 single oral dose 5 mg): 40% and 37%
Occupancy (%) CER ([2]; AZD7325 single oral dose 20 mg): 77% and 95%
Occupancy (%) OC ([2]; AZD7325 single oral dose 20 mg): 75% and 85%
Occupancy (%) PUT ([2]; AZD7325 single oral dose 20 mg): 41% and 46%
Occupancy (%) AMG ([2]; AZD7325 single oral dose 30 mg): 37%
Occupancy (%) CER ([2]; AZD7325 single oral dose 30 mg): 89%
Occupancy (%) OC ([2]; AZD7325 single oral dose 30 mg): 82%
Occupancy (%) PUT ([2]; AZD7325 single oral dose 30 mg): 52%
activity in the battery of ligand binding assays [3]: only assays in which either compound was active were the melatonin Type 1 and Type 2 receptors
C av,PET [4, 8]: 1.74 nM and 2.93 nM
Cmax ([4]; AZD7325 single oral dose 0.2 mg, individual subjects, read-out: C max): 4.12 nM
T max ([4]; AZD7325 single oral dose 1 mg, individual subjects): 1.0 h
Cmax ([4]; AZD7325 single oral dose 1 mg, individual subjects, read-out: C max): 5.19 nM and 12.8 nM
T max ([4]; AZD7325 single oral dose 2 mg, individual subjects): 1.1 h
Cmax ([4]; AZD7325 single oral dose 2 mg, individual subjects, read-out: C max): 5.19 nM and 21.4 nM
C av,PET ([4]; AZD7325 single oral dose 5 mg): 46.28 nM and 39.22 nM
T max ([4]; AZD7325 single oral dose 5 mg, individual subjects): 1.0 h
Cmax ([4]; AZD7325 single oral dose 5 mg, individual subjects, read-out: C max): 44 nM
Cmax ([4]; AZD7325 single oral dose 20 mg, individual subjects, read-out: C max): 302 nM
C av,PET ([4]; AZD7325 single oral dose 30 mg): 265.25 nM
Cmax ([4]; human, plasma, oral, range over all doses and subjects, read-out: range for peak exposures, Cmax): 0.81 to 109 ng/mL
Tmax ([4]; human, plasma, po, 0.2 mg, AZD7325 single oral dose 0.2 mg, individual subjects): 0.5 h
Cmax ([4]; human, plasma, po, 0.2 mg, AZD7325 single oral dose 0.2 mg, individual subjects, read-out: C max): 2.29 nM
Tmax ([4]; human, plasma, po, 1 mg, AZD7325 single oral dose 1 mg, individual subjects): 1.8 h
Tmax ([4]; human, plasma, po, 2 mg, AZD7325 single oral dose 2 mg, individual subjects): 1.3 h
Cmax ([4]; human, plasma, po, 5 mg, AZD7325 single oral dose 5 mg, individual subjects, read-out: C max): 50.2 nM
Tmax ([4]; human, plasma, po, 20 mg, AZD7325 single oral dose 20 mg, individual subjects): 3 h
Cmax ([4]; human, plasma, po, 20 mg, AZD7325 single oral dose 20 mg, individual subjects, read-out: C max): 213 nM
Tmax ([4]; human, plasma, po, 30 mg, AZD7325 single oral dose 30 mg, individual subject): 2.2 h
Cmax ([4]; human, plasma, po, 30 mg, AZD7325 single oral dose 30 mg, individual subject, read-out: C max): 308 nM
brain exposure [5]: good brain exposure
Emax (human MT1 receptor): 90%
relationship between dose and alertness or cognitive performance [6]: no significant relationship
receptor occupancy up to which no cognitive or hypnotic side effects were observed [7]: up to 80%
